Where only a bound is given, the exact number is not on record here.

The test system of this assay is HCV 1b_Huh-Luc/Neo-ET cell line persistently expressing a bicistronic genotype 1b replicon in Huh 7 cells. Briefly: HCV replicon assay (luciferase readout). Type of assay: cell-based. As to conditions: Hepatitis C virus, Huh-7, 72 h, read-out: Inhibition of HCV genotype 1b. The procedure, abridged: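 Huh 7 cells carrying a genotype 1b luciferase/neo replicon treated in triplicate for 72 h, then luciferase activity measured. Signal expressed as % of control; EC50 from four-parameter logistic fit, determined several times.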
A general note: In antiviral work, replicon cells carry a viral genome segment that copies itself.
As to `CCN(CC)[C@@H](C(=O)N1CCC[C@H]1c1ncc(-c2ccc(C#Cc3ccc(-c4cnc([C@@H]5CCCN5C(=O)[C@@H](NC(=O)OC)C(C)C)[nH]4)cc3)cc2)[nH]1)c1ccccc1` [Compound 985], the EC50 is below 1 nM.
Under `COC(=O)N[C@H](C(=O)N1CCC[C@H]1c1ncc(-c2ccc(C#Cc3ccc(-c4cnc([C@@H]5CCCN5C(=O)[C@@H](c5ccccc5)N5CCCCC5)[nH]4)cc3)cc2)[nH]1)C(C)C` [Compound 986] stands below 1 nM; under `COC(=O)N[C@H](C(=O)N1CCC[C@H]1c1ncc(-c2ccc(C#Cc3ccc(-c4cnc([C@@H]5CCCN5C(=O)[C@@H](c5ccccc5)N5CCOCC5)[nH]4)cc3)cc2)[nH]1)C(C)C` [Compound 987], below 1 nM.
Consider `CC(C)[C@H](NC(=O)N1CC[C@H](O)C1)C(=O)N1CCC[C@H]1c1ncc(-c2ccc(C#Cc3ccc(-c4cnc([C@@H]5CCCN5C(=O)[C@@H](NC(=O)N5CC[C@H](O)C5)C(C)C)[nH]4)cc3)cc2)[nH]1` [Compound 988], for which the EC50 is 10 to 999 nM.
Under `COC(=O)N[C@H](C(=O)N1CCC[C@H]1c1ncc(-c2ccc(C#Cc3ccc(-c4cnc([C@@H]5CCCN5C(=O)[C@H](NC(=O)N5CCN(C)CC5)c5ccccc5)[nH]4)cc3)cc2)[nH]1)C(C)C` [Compound 989] stands below 1 nM.
Under `COC(=O)N[C@H](C(=O)N1CCC[C@H]1c1ncc(-c2ccc(C#Cc3ccc(-c4cnc([C@@H]5CCCN5C(=O)[C@@H](NC(=O)N5CCN(CCO)CC5)c5ccccc5)[nH]4)cc3)cc2)[nH]1)C(C)C` [Compound 990] stands 1 to 9.9 nM; under `COC(=O)N[C@H](C(=O)N1CCC[C@H]1c1ncc(-c2ccc(C#Cc3ccc(-c4cnc([C@@H]5CCCN5C(=O)[C@H](NC(=O)N5CCC(O)CC5)c5ccccc5)[nH]4)cc3)cc2)[nH]1)C(C)C` [Compound 991], 1 to 9.9 nM; under `COC(=O)N[C@H](C(=O)N1CCC[C@H]1c1ncc(-c2ccc(C#Cc3ccc(-c4cnc([C@@H]5CCCN5C(=O)[C@H](NC(=O)N5CCC(C)(O)CC5)c5ccccc5)[nH]4)cc3)cc2)[nH]1)C(C)C` [Compound 992], below 1 nM.
The figure for `COC(=O)N[C@H](C(=O)N1CCC[C@H]1c1ncc(-c2ccc(C#Cc3ccc(-c4cnc([C@@H]5CCCN5C(=O)[C@@H](NC(=O)OC)C(C)(C)O)[nH]4)cc3)cc2)[nH]1)C(C)(C)O` [Compound 993] is below 1 nM.
As for `COC(=O)N[C@H](C(=O)N1CCC[C@H]1c1ncc(-c2ccc(C#Cc3ccc(-c4cnc([C@@H]5CCCN5C(=O)[C@@H](NC(=O)OC)C(C)(C)O)[nH]4)cc3)cc2)[nH]1)C(C)C` [Compound 994], the EC50 is below 1 nM.
Under `COC(=O)N[C@H](C(=O)N1CCC[C@H]1c1ncc(-c2ccc(C#Cc3ccc(-c4cnc([C@@H]5CCCN5C(=O)[C@@H](Nc5cccnc5)C(C)C)[nH]4)cc3)cc2)[nH]1)C(C)C` [Compound 995] stands below 1 nM; under `COC(=O)N[C@H](C(=O)N1CCC[C@H]1c1ncc(-c2ccc(C#Cc3ccc(-c4cnc([C@@H]5CCCN5C(=O)[C@H](C(C)C)N5CCOC5=O)[nH]4)cc3)cc2)[nH]1)C(C)C` [Compound 996], below 1 nM; under `CNC(=O)N[C@@H](C(=O)N1CCC[C@H]1c1ncc(-c2ccc(C#Cc3ccc(-c4cnc([C@@H]5CCCN5C(=O)[C@H](NC(=O)C5CC5)c5ccccc5)[nH]4)cc3)cc2)[nH]1)c1ccccc1` [Compound 997], below 1 nM.
Consider `C[C@@H]1OC(=O)N[C@H]1C(=O)N1CCC[C@H]1c1ncc(-c2ccc(C#Cc3ccc(-c4cnc([C@@H]5CCCN5C(=O)[C@@H]5NC(=O)O[C@H]5C)[nH]4)cc3)cc2)[nH]1` [Compound 1000], for which the EC50 was 10 to 999 nM.
The figure for `COC(=O)N[C@H](C(=O)N1CCC[C@H]1c1ncc(-c2ccc(C#Cc3ccc(-c4cnc([C@@H]5CCCN5C(=O)[C@@H](NC5CCOCC5)C(C)C)[nH]4)cc3)cc2)[nH]1)C(C)C` [Compound 1001] is 1 to 9.9 nM; for `COC(=O)N[C@H](C(=O)N1CCC[C@H]1c1ncc(-c2ccc(C#Cc3ccc(-c4cnc([C@@H]5CCCN5C(=O)[C@H](NC(=O)OC)c5ccccc5)[nH]4)cc3)cc2)[nH]1)C(C)C` [Compound 1002] it is below 1 nM.

(Values after patent US8865756B2, “Inhibitors of HCV NS5A” (Presidio Pharmaceuticals, Inc., priority 2008, dated 2014).)
